The test system of assay [1] is SW837. The assay is described as follows: combination cScore with sotorasib (Bliss gap around IC50) (%PoC); higher = stronger additive effect. Here is the method:
(§1)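 Combination screen of 179 inhibitors with the KRAS G12C inhibitor sotorasib (AMG510) in dose matrices, CellTiter-Glo readout in NCI-H2122 (72 h), SW837 (144 h) and NCI-H358 cells. The cScore is the mean Bliss-independence gap (expected minus observed viability, in %PoC) over a 3x3 field around the IC50s of both drugs. Positive means additive, and >~10 is stated as clear additive.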

The subject of assay [2] is NCI-H2122. Described as above. As to the method:
as §1

Turning to `COC(=O)c1ccc2c(c1)NC(=O)/C2=C(\Nc1ccc(N(C)C(=O)CN2CCN(C)CC2)cc1)c1ccccc1` [Nintedanib] + C=CC(=O)N1CCN(c2nc(=O)n(-c3c(C)ccnc3C(C)C)c3nc(-c4c(O)cccc4F)c(F)cc23)[C@@H](C)C1 [sotorasib], the “combination cScore with sotorasib” value in assay [1] is 0.78; in assay [2], 11.8.

With `CC(C)(C)c1ccc(S(=O)(=O)NCc2ccc(C(=O)Nc3cccnc3)cc2)cc1` [STF-31] + C=CC(=O)N1CCN(c2nc(=O)n(-c3c(C)ccnc3C(C)C)c3nc(-c4c(O)cccc4F)c(F)cc23)[C@@H](C)C1 [sotorasib], the “combination cScore with sotorasib” value was 17.6 in assay [1] and -10.2 in assay [2].

With `N[C@@H](Cc1ccc(N(CCCl)CCCl)cc1)C(=O)O` [Melphalan] + C=CC(=O)N1CCN(c2nc(=O)n(-c3c(C)ccnc3C(C)C)c3nc(-c4c(O)cccc4F)c(F)cc23)[C@@H](C)C1 [sotorasib], the “combination cScore with sotorasib” value in assay [1] worked out at 4.26; in assay [2], 2.92.

On to `CN(C)CCCC(=O)Nc1n[nH]c2nnc(-c3ccccc3)cc12` + C=CC(=O)N1CCN(c2nc(=O)n(-c3c(C)ccnc3C(C)C)c3nc(-c4c(O)cccc4F)c(F)cc23)[C@@H](C)C1 [sotorasib], for which the “combination cScore with sotorasib” value was -4.53 in assay [1] and -11.8 in assay [2].

On to `COc1ccc2nc3ccc(OC)cc3c(SCCCN)c2c1` + C=CC(=O)N1CCN(c2nc(=O)n(-c3c(C)ccnc3C(C)C)c3nc(-c4c(O)cccc4F)c(F)cc23)[C@@H](C)C1 [sotorasib], for which the “combination cScore with sotorasib” value in assay [1] was -2.67; in assay [2], 11.5.

With `CO[C@H]1C[C@@H]2CC[C@@H](C)[C@@](O)(O2)C(=O)C(=O)N2CCCC[C@H]2C(=O)O[C@H]([C@H](C)C[C@@H]2CC[C@@H](O)[C@H](OC)C2)CC(=O)[C@H](C)/C=C(\C)[C@@H](O)[C@@H](OC)C(=O)[C@H](C)C[C@H](C)/C=C/C=C/C=C/1C` [Rapamycin] + C=CC(=O)N1CCN(c2nc(=O)n(-c3c(C)ccnc3C(C)C)c3nc(-c4c(O)cccc4F)c(F)cc23)[C@@H](C)C1 [sotorasib], the “combination cScore with sotorasib” value in assay [1] is 10.2; in assay [2] it was 13.4.

As for `Nc1ncn([C@H]2C[C@H](O)[C@@H](CO)O2)c(=O)n1` [Decitabine] + C=CC(=O)N1CCN(c2nc(=O)n(-c3c(C)ccnc3C(C)C)c3nc(-c4c(O)cccc4F)c(F)cc23)[C@@H](C)C1 [sotorasib], the “combination cScore with sotorasib” value in assay [1] came to 0.84; in assay [2], 1.

On to `COc1cc(OC)c(/C=C/S(=O)(=O)Cc2ccc(OC)c(NCC(=O)O)c2)c(OC)c1` [Rigosertib] + C=CC(=O)N1CCN(c2nc(=O)n(-c3c(C)ccnc3C(C)C)c3nc(-c4c(O)cccc4F)c(F)cc23)[C@@H](C)C1 [sotorasib], for which the “combination cScore with sotorasib” value in assay [1] was determined as 13.3; in assay [2], 2.41.

For the molecule `CC(C)(C)c1nc(-c2cccc(NS(=O)(=O)c3c(F)cccc3F)c2F)c(-c2ccnc(N)n2)s1` [Dabrafenib] + C=CC(=O)N1CCN(c2nc(=O)n(-c3c(C)ccnc3C(C)C)c3nc(-c4c(O)cccc4F)c(F)cc23)[C@@H](C)C1 [sotorasib], the “combination cScore with sotorasib” value in assay [1] is -2.81; in assay [2] it was 13.3.

For `O=C(O)C1(C(=O)O)CCC1.[NH2-].[NH2-].[Pt+2]` [Carboplatin] + C=CC(=O)N1CCN(c2nc(=O)n(-c3c(C)ccnc3C(C)C)c3nc(-c4c(O)cccc4F)c(F)cc23)[C@@H](C)C1 [sotorasib], the results for the “combination cScore with sotorasib” value in assay [1] and in assay [2] were -4.17 and 11.6, respectively.

As to `CCCCCOC(=O)Nc1nc(=O)n([C@@H]2O[C@H](C)[C@@H](O)[C@H]2O)cc1F` [Capecitabin] + C=CC(=O)N1CCN(c2nc(=O)n(-c3c(C)ccnc3C(C)C)c3nc(-c4c(O)cccc4F)c(F)cc23)[C@@H](C)C1 [sotorasib], the “combination cScore with sotorasib” value came out at 1.19 in assay [1] and 4.4 in assay [2].

In the case of `N#CC[C@H](C1CCCC1)n1cc(-c2ncnc3[nH]ccc23)cn1` [Ruxolitinib] + C=CC(=O)N1CCN(c2nc(=O)n(-c3c(C)ccnc3C(C)C)c3nc(-c4c(O)cccc4F)c(F)cc23)[C@@H](C)C1 [sotorasib], the “combination cScore with sotorasib” value is 6.8 in assay [1] and 4.05 in assay [2].

`CC[C@H](C)C(=O)O[C@H]1C[C@@H](C)C=C2C=C[C@H](C)[C@H](CC[C@@H]3C[C@@H](O)CC(=O)O3)[C@H]21` [Lovastatin] + C=CC(=O)N1CCN(c2nc(=O)n(-c3c(C)ccnc3C(C)C)c3nc(-c4c(O)cccc4F)c(F)cc23)[C@@H](C)C1 [sotorasib]: the “combination cScore with sotorasib” value in assay [1] is -0.46; in assay [2], -1.83.

Regarding `CN[C@@H](C)C(=O)N[C@H](C(=O)N1CCC[C@H]1c1nc(C(=O)c2ccc(F)cc2)cs1)C1CCCCC1` [LCL161] + C=CC(=O)N1CCN(c2nc(=O)n(-c3c(C)ccnc3C(C)C)c3nc(-c4c(O)cccc4F)c(F)cc23)[C@@H](C)C1 [sotorasib], the figures for the “combination cScore with sotorasib” value in assay [1] and in assay [2] were -3.76 and 2.3, respectively.

As to `O=C(O)c1nn(Cc2ccc(Cl)cc2Cl)c2ccccc12` [Lonidamine] + C=CC(=O)N1CCN(c2nc(=O)n(-c3c(C)ccnc3C(C)C)c3nc(-c4c(O)cccc4F)c(F)cc23)[C@@H](C)C1 [sotorasib], the figures for the “combination cScore with sotorasib” value in assay [1] and in assay [2] were 2.86 and -0.87, respectively.

Regarding `Nc1nc(Nc2ccc3c(c2)CC[C@@H](N2CCCC2)CC3)nn1-c1cc2c(nn1)-c1ccccc1CCC2` [Bemcentinib] + C=CC(=O)N1CCN(c2nc(=O)n(-c3c(C)ccnc3C(C)C)c3nc(-c4c(O)cccc4F)c(F)cc23)[C@@H](C)C1 [sotorasib], the “combination cScore with sotorasib” value is 4.27 in assay [1] and -5 in assay [2].

Turning to `Nc1ccn([C@@H]2O[C@H](CO)[C@@H](O)C2(F)F)c(=O)n1` [Gemcitabine] + C=CC(=O)N1CCN(c2nc(=O)n(-c3c(C)ccnc3C(C)C)c3nc(-c4c(O)cccc4F)c(F)cc23)[C@@H](C)C1 [sotorasib], the “combination cScore with sotorasib” value in assay [1] came out at 1.12; in assay [2], 3.14.

For the molecule `CC(C)Nc1cc(-c2c[nH]c(C(=O)N[C@H](CO)c3cccc(Cl)c3)c2)c(Cl)cn1` [Ulixertinib] + C=CC(=O)N1CCN(c2nc(=O)n(-c3c(C)ccnc3C(C)C)c3nc(-c4c(O)cccc4F)c(F)cc23)[C@@H](C)C1 [sotorasib], the “combination cScore with sotorasib” value was 3.35 in assay [1] and -4.67 in assay [2].

Regarding `O=C(O)CCCCC(CCSCc1ccccc1)SCc1ccccc1` (centres undefined) [CPI-613] + C=CC(=O)N1CCN(c2nc(=O)n(-c3c(C)ccnc3C(C)C)c3nc(-c4c(O)cccc4F)c(F)cc23)[C@@H](C)C1 [sotorasib], the “combination cScore with sotorasib” value is -5.35 in assay [1] and 19 in assay [2].

With `Nc1ccn([C@@H]2O[C@H](CO)[C@@H](O)[C@@H]2O)c(=O)n1` [Cytarabin] + C=CC(=O)N1CCN(c2nc(=O)n(-c3c(C)ccnc3C(C)C)c3nc(-c4c(O)cccc4F)c(F)cc23)[C@@H](C)C1 [sotorasib], the “combination cScore with sotorasib” value in assay [1] was 8.17; in assay [2] it was 5.6.

Consider `COc1cc([C@@H]2c3cc4c(cc3[C@@H](O[C@@H]3O[C@@H]5CO[C@@H](C)O[C@H]5[C@H](O)[C@H]3O)[C@H]3COC(=O)[C@H]23)OCO4)cc(OC)c1O` [Etoposide] + C=CC(=O)N1CCN(c2nc(=O)n(-c3c(C)ccnc3C(C)C)c3nc(-c4c(O)cccc4F)c(F)cc23)[C@@H](C)C1 [sotorasib], for which the “combination cScore with sotorasib” value amounted to 4.54 in assay [1] and 14.1 in assay [2].

Regarding `Cn1c(=O)n(-c2ccc(C(C)(C)C#N)cc2)c2c3cc(-c4cnc5ccccc5c4)ccc3ncc21` [NVP-BEZ235] + C=CC(=O)N1CCN(c2nc(=O)n(-c3c(C)ccnc3C(C)C)c3nc(-c4c(O)cccc4F)c(F)cc23)[C@@H](C)C1 [sotorasib], the “combination cScore with sotorasib” value in assay [1] is 7.37; in assay [2], 12.

As for `Cc1ccc(Nc2nccc(N(C)c3ccc4c(C)n(C)nc4c3)n2)cc1S(N)(=O)=O` [Pazopanib] + C=CC(=O)N1CCN(c2nc(=O)n(-c3c(C)ccnc3C(C)C)c3nc(-c4c(O)cccc4F)c(F)cc23)[C@@H](C)C1 [sotorasib], the entries for the “combination cScore with sotorasib” value in assay [1] and in assay [2] were 2.58 and 9.15, respectively.

Regarding `Cc1[nH]c(/C=C2\C(=O)Nc3ccc(S(=O)(=O)Cc4c(Cl)cccc4Cl)cc32)c(C)c1C(=O)N1CCC[C@@H]1CN1CCCC1` + C=CC(=O)N1CCN(c2nc(=O)n(-c3c(C)ccnc3C(C)C)c3nc(-c4c(O)cccc4F)c(F)cc23)[C@@H](C)C1 [sotorasib], the “combination cScore with sotorasib” value is -0.04 in assay [1] and 0.62 in assay [2].

`CCOC(=O)CCNc1cc(N2CCc3ccccc3CC2)nc(-c2ccccn2)n1` [GSK-J4] + C=CC(=O)N1CCN(c2nc(=O)n(-c3c(C)ccnc3C(C)C)c3nc(-c4c(O)cccc4F)c(F)cc23)[C@@H](C)C1 [sotorasib]: the figures for the “combination cScore with sotorasib” value in assay [1] and in assay [2] were -0.52 and -0.59, respectively.

Take `CO[C@H]1/C=C/C[C@H](C)[C@@H](C)S(=O)(=O)NC(=O)c2ccc3c(c2)N(C[C@@H]2CC[C@H]21)C[C@@]1(CCCc2cc(Cl)ccc21)CO3` [AMG176] + C=CC(=O)N1CCN(c2nc(=O)n(-c3c(C)ccnc3C(C)C)c3nc(-c4c(O)cccc4F)c(F)cc23)[C@@H](C)C1 [sotorasib]: the figures for the “combination cScore with sotorasib” value in assay [1] and in assay [2] were 2.13 and 17.3, respectively.

Take `COc1cc(OC2CCN(C)CC2)ccc1Nc1ncc2c(n1)n(C1CCCC1)c(=O)n2C` [AZ3146] + C=CC(=O)N1CCN(c2nc(=O)n(-c3c(C)ccnc3C(C)C)c3nc(-c4c(O)cccc4F)c(F)cc23)[C@@H](C)C1 [sotorasib]: the “combination cScore with sotorasib” value in assay [1] was 19.4; in assay [2], 4.43.

The record behind these values is the supplement of paper PMC11424490.
